The source of these data is patent publication US7074822B2, “Alkyl carbamate-substituted β-lactones, process for their preparation, and pharmaceutical compositions containing them” (Solvay Pharmaceuticals GmbH, priority 2004, dated 2006).

Usually IC50 stands for the concentration needed to halve the response being measured.

The first test concerns the target T1, porcine pancreatic lipase (Sus scrofa, UniProt P00591).
T1 construct: lipase standard LS7 in accordance with the rules of the “Fédération Internationale Pharmaceutique” (=FIP) (porcine pancreatic lipase, 36,700 FIP units/g); host or cells: porcine pancreas
T1 sequence (P00591 1-450): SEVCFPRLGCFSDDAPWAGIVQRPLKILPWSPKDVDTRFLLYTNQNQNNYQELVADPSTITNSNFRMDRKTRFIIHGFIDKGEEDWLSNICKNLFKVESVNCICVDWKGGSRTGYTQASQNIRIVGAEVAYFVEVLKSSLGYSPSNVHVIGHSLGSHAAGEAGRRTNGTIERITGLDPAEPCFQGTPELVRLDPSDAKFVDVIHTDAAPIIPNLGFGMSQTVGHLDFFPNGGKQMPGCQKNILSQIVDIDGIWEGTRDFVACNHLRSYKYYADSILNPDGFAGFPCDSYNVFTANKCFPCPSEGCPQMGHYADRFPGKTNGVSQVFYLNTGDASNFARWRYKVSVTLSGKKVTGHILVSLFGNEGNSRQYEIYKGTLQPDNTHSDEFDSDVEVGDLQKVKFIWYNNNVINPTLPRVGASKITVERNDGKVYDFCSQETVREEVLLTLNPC
The test is described as follows: Olive oil test: inhibition of porcine pancreatic lipase with respect to triglycerides in olive oil (pH-stat titration). In kind it is biochemical. The settings on record: substrate olive oil emulsion, pH 9.0, 37.0° C., 10 minutes pre-incubation in ice bath; read-out: IC50, porcine pancreatic lipase-inhibiting action in vitro with respect to triglycerides in olive oil. Here is the method: In a heterogeneous reaction, the inhibition of the lipolytic action of porcine pancreatic lipase was determined under the influence of the test substances of Formula I with respect to the triglycerides contained in the test substrate olive oil. The fatty acids released by the lipase were titrated with sodium hydroxide solution to pH 9.0.
(§1) The reagents given below were prepared:
A. Gum Arabic Solution 10% (m/V)
200 g gum arabic (Acaciae gummi in accordance with the specifications of the German Pharmacopeia (=DAB)/European Pharmacopeia (=Ph.Eur.) was dissolved in 2000 ml ultrapure water with stirring and if necessary centrifugation. The solution was stored at −20° C. in plastic vessels of capacity of 250 ml. The amount required per day was thawed as required.
B. Sodium Taurocholate Solution 8% (m/V)
8 g sodium taurocholate (FIP) was dissolved in 100 ml ultrapure water.
60.6 mg Tris(hydroxymethyl)aminomethane p.a. (Merck, No. 8382) and 234 mg sodium chloride (p.a.) were dissolved in 100 ml ultrapure water.
D. 0.1 N Sodium Hydroxide Solution […]
1 ml lipase reference suspension was incubated with the respective amount of inhibitor solution for 10 minutes in an ice bath. […] The sodium hydroxide consumption between the 1st and the 5th minute was evaluated. […]
For the compound `CCCCCC[C@@H]1C(=O)O[C@H]1CCCCCOC(=O)Nc1ccc(Oc2ccccc2)cc1` (relative stereo) [Example 1, trans-(3-hexyl-4-oxo-oxetan-2-yl)-pentyl-(phenoxyphenyl)-carbamate], the half-inhibitory concentration (IC50) was 17 nM.

The subject of a further test is pancreatic lipase. The test is described as follows: Pancreatic lipase-inhibiting action of intermediates of Formula IVa (statement, no method given). In kind it is biochemical. As to conditions: qualitative statement.
`CCCCCCC1C(=O)OC1CCCCCOCc1ccccc1` (stereo not shown) [3-hexyl-4-[5(benzyloxy)pentyl}]oxetan-2-one]: the “action inhibiting pancreatic lipase” value was “exhibit an action inhibiting pancreatic lipase”.
Take `CCCCCCC1C(=O)OC1CCCCCOC1CCCCO1` (stereo not shown) [3-hexyl-4-{5[(tetrahydro-2H-pyran-2-yl)oxy]pentyl}oxetan-2-one]: the “action inhibiting pancreatic lipase” value is “exhibit an action inhibiting pancreatic lipase”.

Another test addresses T1, porcine pancreatic lipase. Nature of the test: p-nitrophenyl palmitate (pNpp) test: inhibition of lipolytic action of porcine pancreatic lipase in vitro. Format: biochemical. The settings on record: substrate p-nitrophenyl palmitate, 37° C., absorbance at 405 nm; read-out: IC50, porcine pancreatic lipase-inhibiting action in vitro with respect to pNpp. The method, then:
1. p-nitrophenyl Palmitate Test
In this test the inhibition of the lipolytic action of porcine pancreatic lipase with respect to the test substrate p-nitrophenyl palmitate(=pNpp) under the influence of the test substances of Formula I was determined. Therein, the change in the relative absorbance of the investigated solutions caused by the lipolytic release of p-nitrophenol from pNpp was measured.
as §1
To prepare a “solution A”, 45 mg pNpp was dissolved in 15 ml isopropanol by sonication with ultrasound. To prepare a “solution B”, 558 mg Na-deoxycholate dry substance and 67.5 mg gum arabic were dissolved in 135 ml 0.05 M sodium phosphate buffer (pH=8.0). 15 ml “solution A” was injected into 135 ml ice-cold “solution B” in […] of 1.25 ml with an Eppendorf hand dispenser with stirring at 400 rpm at the highest possible rate. The initial absorbance E1 when determining the blank reading was less than 0.250 U each time.
B. Sodium Chloride Solution 1% (mN)
10 g sodium chloride (NaCl, p.a.) was dissolved in 1000 ml ultrapure water.
C. Lipase Standard Solution (50 FIP units/ml)
120.8 mg lipase standard LS7 in accordance with the rules of the “Fédération Internationale Pharmaceutique” (=FIP) (porcine pancreatic lipase, 36,700 FIP units/g) was dissolved in 50 ml ice-cold sodium chloride solution (B) and filtered through a 0.2 μm syringe filter. 20 ml of the filtrate was diluted with […] sodium chloride solution (B) (corresponding to 50 FIP units/ml).
D. Lipase Calibration Solutions (10–20–30–40 FIP units/ml)
In each case 2–4–6–8 ml lipase standard solution (C) was made up to 10 ml with sodium chloride solution (B) and stored in an ice bath.
E. Lipase Stock Solution (40 FIP units/ml)
8 ml lipase standard solution was made up to 10 ml with sodium chloride solution (B) and stored in an ice bath.
The lipase-inhibitory compounds of Formula I were dissolved in DMSO. A dilution series of 100–0.1 nmol/ml was produced from this stock solution. 100 μl of these dilutions were used in the test. The dilutions were adapted such that the maximum residual activity of the lipase was >90%.
Measurement was effected at 37° C., and the absorbances were measured at a wavelength of 405 nm. The photometric measuring station comprised a photometer and an agitator (from Eppendorf). The photometer was adjusted to 0 U with water. At the start and end of the investigation series, in each case eight blank readings and one lipase calibration series were measured. For the blank readings, in each case 1 ml substrate solution was mixed with 100 μl DMSO, the mixture was shaken for 5 seconds and kept at a controlled temperature for 5 minutes. Then 100 μl sodium chloride solution (B) were added thereto by pipette and the mixture was shaken for a further 5 seconds. After 2 minutes, the increase in absorbance was detected for 4 minutes. The absorbance starting value E1 when determining the blank readings was in each case less than 0.250 U.
For the calibration, 1 ml substrate solution was placed in each of eight cuvettes, mixed with 100 μl DMSO, shaken for 5 seconds and kept at a controlled temperature for 5 minutes. The reaction was started with 100 μl calibration solution. After 2 minutes, the kinetics were detected for 4 minutes. Each concentration was measured twice.
For measuring the inhibitor solutions, 1 ml substrate solution was placed in each of eight cuvettes, mixed with 100 μl inhibitor solution, shaken for 5 seconds and then kept at a controlled temperature for 5 minutes. The reaction was started with 100 μl lipase stock solution. After 2 minutes, the kinetics were detected for 4 minutes. The inhibitor solutions and the lipase standard solution were each prepared immediately before the start of the investigation series. […]
`CCCCCCC1C(=O)OC1CCCCCOC(=O)Nc1ccccc1` (mixture of isomers) [Example 2, cis/trans-5-(3-hexyl-4-oxo-oxetan-2-yl)pentyl-phenyl carbamate]: the half-inhibitory concentration (IC50) stood at 47 nM.
As for `CCCCCCC1C(=O)OC1CCCCCOC(=O)NC(C)C` (mixture of isomers) [Example 3, cis/trans-5-(3-hexyl-4-oxo-oxetan-2-yl)pentyl-isopropyl carbamate], the IC50 came to 88 nM.
Turning to `CCCCCCC1C(=O)OC1CCCOC(=O)Nc1ccccc1` (racemic) [Example 7], the IC50 stood at 107 nM.
For `CCCCCC[C@@H]1C(=O)O[C@H]1CCCCCOC(=O)Nc1ccc(Oc2ccccc2)cc1` (relative stereo) [Example 1, trans-(3-hexyl-4-oxo-oxetan-2-yl)-pentyl-(phenoxyphenyl)-carbamate], the IC50 is 106 nM.
For `CCCCCC[C@@H]1C(=O)O[C@H]1CCCCCOC(=O)Nc1ccc(Oc2ccccc2)cc1` [Example 6, (2S,3S)-5-(3-hexyl-4-oxo-oxetan-2-yl)-pentyl-(4-phenoxyphenyl)-carbamate], the IC50 worked out at 113 nM.
Take `CCCCCCC1C(=O)OC1CCCCCOC(=O)NCc1ccccc1` (stereo not shown) [Example 8]: the IC50 was 187 nM.
Same read-out and setting: for `CCCCCCC1C(=O)OC1CCCCCOC(=O)Nc1ccc(OCC)cc1` (stereo not shown) [Example 9] the value was 67 nM; for `CCCCCCC1C(=O)OC1CCCCCOC(=O)NC(=O)c1ccccc1` (stereo not shown) [Example 10], 177 nM.
With `CCCCCCC1C(=O)OC1CCCCCOC(=O)NCCc1ccccc1` (stereo not shown) [Example 11], the IC50 is 28 nM.
As for `CCCCCCC1C(=O)OC1CCCCCOC(=O)Nc1ccc(Cl)c(Cl)c1` (stereo not shown) [Example 13], the half-inhibitory concentration (IC50) was found to be 319 nM.
